Measured values from patent publication US20090054403A1, “Treatment of Post-Traumatic Stress Disorder” (priority 2007, published 2009).
Values joined by “and” are separate entries in the source; they are usually repeats but may differ in a detail not shown here. Identical values can stand only once. Like-named read-outs stand apart in the source and are kept apart here.

Columns and labels:
[1] = target: T1, human dopamine-β-hydroxylase (Homo sapiens, UniProt P09172); experiment: Human DBH activity, conversion of tyramine to octopamine (HPLC); assay type: biochemical; conditions: for IC50: 0.1 mM tyramine, 4 mM ascorbate, pH 5.2
T1 construct: Human secretory DBH was purified from the culture medium of the neuroblastoma cell line SK-N-SH; endogenous in cells; host or cells: SK-N-SH neuroblastoma cells; secreted enzyme purified in house from the culture medium on lentil lectin-sepharose
T1 sequence (P09172 40-617 limits assumed): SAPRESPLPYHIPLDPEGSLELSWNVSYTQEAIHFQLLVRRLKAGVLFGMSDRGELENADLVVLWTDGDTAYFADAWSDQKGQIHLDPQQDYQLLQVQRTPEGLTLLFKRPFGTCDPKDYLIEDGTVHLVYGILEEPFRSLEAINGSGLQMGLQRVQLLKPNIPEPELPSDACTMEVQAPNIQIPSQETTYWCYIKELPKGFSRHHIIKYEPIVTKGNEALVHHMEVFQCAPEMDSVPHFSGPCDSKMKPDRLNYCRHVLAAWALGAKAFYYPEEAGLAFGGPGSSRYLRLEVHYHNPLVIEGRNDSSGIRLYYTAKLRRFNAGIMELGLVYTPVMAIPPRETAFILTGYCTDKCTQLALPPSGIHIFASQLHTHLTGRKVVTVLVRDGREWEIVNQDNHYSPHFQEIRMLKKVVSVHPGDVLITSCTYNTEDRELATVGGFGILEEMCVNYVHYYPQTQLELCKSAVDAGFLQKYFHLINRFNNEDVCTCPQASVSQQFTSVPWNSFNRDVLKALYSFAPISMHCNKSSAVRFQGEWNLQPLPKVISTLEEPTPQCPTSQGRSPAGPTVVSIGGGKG
Protocol: (§1) Bovine and human dopamine-β-hydroxylase activity was assayed by measuring the conversion of tyramine to octopamine. Bovine adrenal dopamine-β-hydroxylase was obtained from Sigma Chemicals (St Louis, Mo., USA) whereas human dopamine-β-hydroxylase was purified from the culture medium of the neuroblastoma cell line SK-N-SH. The assay was performed at pH 5.2 and 32° C. in a medium containing 0.125 M NaAc, 10 mM fumarate, 0.5-2 μM CuSO4, 0.1 mg.ml^−1 catalase, 0.1 mM tyramine and 4 mM ascorbate. In a typical assay, 0.5-1 milliunits of enzyme were added to the reaction mixture and, subsequently, a substrate mixture containing catalase, tyramine and ascorbate was added to initiate the reaction (final volume of 200 μl). Samples were incubated with or without the appropriate concentration of nepicastat (S-enantiomer) or (R)-5-Aminomethyl-1-(5,7-difluoro-1,2,3,4-tetrahydronaphth-2-yl)-2,3-dihydro-2-thioxo-1H-imidazole hydrochloride (R-enantiomer) at 37° C. for 30-40 minutes. The reaction was quenched by the stop solution containing 25 mM EDTA and 240 μM 3-hydroxytyramine (internal standard). The samples were analysed for octopamine by reverse phase high pressure liquid chromatography (HPLC) using ultraviolet-detection at […]. The HPLC chromatography run was carried out at the flow rate of 1 ml.min^−1 using a LiChroCART 125-4 RP-18 column and isocratic elution with 10 mM acidic acid, 10 mM 1-heptane sulfonic acid, 12 mM tetrabutyl ammonium phosphate and 10% methanol. The remaining percent activity was calculated based on controls, corrected using internal standards and fitted to a non-linear four-parameter concentration-response curve.
(§2) In vitro assay of DBH activity. DBH activity was assayed by measuring the conversion of tyramine to octopamine. Bovine DBH from adrenal glands was obtained from Sigma Chemical Co (St Louis, Mo.). Human secretory DBH was purified from the culture medium of the neuroblastoma cell line SK-N-SH. The assay was performed at pH 5.2 and 32° C. in 0.125 M NaOAc, 10 mM fumarate, 0.5-2 μM CUSO4, 0.1 mg/mL catalase, 0.1 mM tyramine and 4 mM ascorbate. In a typical assay, 0.5-1 milliunits of enzyme were added to the reaction mixture and then a substrate mixture containing catalase, tyramine and ascorbate was added to initiate the reaction (final volume of 200 μL). Samples were incubated with or without the appropriate concentration of the inhibitor at 37° C. for 30-40 min. The reaction was quenched by the stop solution containing 25 mM EDTA and 240 μM 3-hydroxytyramine (internal standard). The samples were analysed for octopamine by reverse phase HPLC using UV detection at […]. The remaining percent activity was calculated based on controls (without inhibitor), corrected using internal standards and fitted to a non-linear 4-parameter concentration-response curve to obtain IC50 values.
(§3) Bovine DBH from adrenal glands was obtained from Sigma Chemicals (St. Louis, Mo.). Human secretory DBH was purified from the culture medium of the neuroblastoma cell line SK-N-SH and was used to obtain the inhibition data. A lentil lectin-sepharose column containing 25 ml gel was prepared and equilibrated with 50 mM KH2PO4, pH 6.5, 0.5 M NaCl. The column was eluted with 35 ml of 10% methyl α, D-mannopyranoside in 50 mM KH2PO4, pH 6.5, 0.5 M NaCl at 0.5 ml/min. Fraction containing most enzymatic activities were pooled and concentrated with an Amicon stirred cell using a YM30 membrane. Methyl α, D-mannopyranoside was removed by buffer exchange with in 50 mM KH2PO4, pH 6.5, 0.1 M NaCl. The concentrated enzyme solution was aliquoted and stored at −25° C. An HPLC assay was used to measure DBH activity using tyramine and ascorbate as substrates. […]

[2] = target: T2, bovine dopamine-β-hydroxylase (Bos taurus, UniProt P15101); experiment: Bovine DBH activity, conversion of tyramine to octopamine (HPLC); assay type: biochemical; conditions: for IC50: 0.1 mM tyramine, 4 mM ascorbate, pH 5.2
T2 construct: Bovine DBH from adrenal glands was obtained from Sigma Chemicals; purchased Sigma Chemicals (St Louis, Mo.); host or cells: bovine adrenal glands
T2 sequence (P15101 1-610): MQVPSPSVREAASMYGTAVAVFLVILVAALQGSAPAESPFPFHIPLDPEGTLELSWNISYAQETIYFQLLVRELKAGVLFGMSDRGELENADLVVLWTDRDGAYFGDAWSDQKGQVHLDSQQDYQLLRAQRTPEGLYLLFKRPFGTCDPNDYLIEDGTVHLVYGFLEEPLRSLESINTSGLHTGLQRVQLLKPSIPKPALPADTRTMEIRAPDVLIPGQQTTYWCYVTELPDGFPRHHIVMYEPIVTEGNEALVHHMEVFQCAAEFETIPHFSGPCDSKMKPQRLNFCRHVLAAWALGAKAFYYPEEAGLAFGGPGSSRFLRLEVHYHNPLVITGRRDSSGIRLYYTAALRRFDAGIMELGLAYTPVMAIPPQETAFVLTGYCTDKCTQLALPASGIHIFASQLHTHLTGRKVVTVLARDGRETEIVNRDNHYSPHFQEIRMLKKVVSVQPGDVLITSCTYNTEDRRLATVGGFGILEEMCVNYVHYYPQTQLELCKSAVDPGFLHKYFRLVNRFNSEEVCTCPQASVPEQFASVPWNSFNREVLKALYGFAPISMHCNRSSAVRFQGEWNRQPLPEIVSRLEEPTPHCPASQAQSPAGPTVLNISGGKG
Protocol: as §1, §2
as §3, with “membrane.” for “membrane. Methyl α, D-mannopyranoside was removed by buffer exchange with in 50 mM KH2PO4, pH 6.5, 0.1 M NaCl. The concentrated enzyme solution was aliquoted and stored at −25° C. An HPLC assay was used to measure DBH activity using tyramine and ascorbate as substrates.”

[3] = bovine and human DBH taken together

| SMILES | IC50 [1] | IC50 [2] [nM] | potency relative to SKF 102698 [1] [fold] | potency relative to the R enantiomer [1] [fold] | potency relative to SKF 102698 [1, 3] | potency relative to the R enantiomer [1, 3] | selectivity for dopamine-β-hydroxylase ([1]; vs the other enzymes studied) [fold] | potency relative to SKF 102698 [2] [fold] | potency relative to the R enantiomer [2] [fold] |
| --- | --- | --- | --- | --- | --- | --- | --- | --- | --- |
| Cl.NCc1c[nH]c(=S)n1[C@@H]1CCc2c(F)cc(F)cc2C1 [R-enantiomer, (R)-5-Aminomethyl-1-(5,7-difluoro-1,2,3,4-tetrahydronaphth-2-yl)-2,3-dihydro-2-thioxo-1H-imidazole hydrochloride] | 18.3 nM and 18 nM | 25.1 ± 0.6 | – | – | – | – | – | – | – |
| Fc1cc(F)cc(Cn2cc[nH]c2=S)c1 [SKF 102698, reference compound] | 85 ± 3.7 nM | 67 ± 4.2 | – | – | – | – | – | – | – |
| Cl.NCc1c[nH]c(=S)n1[C@H]1CCc2c(F)cc(F)cc2C1 [nepicastat, (S)-5-Aminomethyl-1-(5,7-difluoro-1,2,3,4-tetrahydronaphth-2-yl)-2,3-dihydro-2-thioxo-1H-imidazole hydrochloride] | 9 nM | 8.5 ± 0.8 | 9 | 2 | 8-9 fold | 2-3 fold | > 1000 | 8 | 3 |
